Tests used:
[1] = target: DNAPK (Homo sapiens (Human), UniProt P78527); assay: DNAPK cellular potency assay (DNA-PK cell), pS2056-DNAPK ELISA in irradiated A549 cells; type: cell-based; details: 8 Gy radiation, arithmetic mean of two or more experiments, read-out: DNA-PK cell pIC50 (converted)
Method: The DNAPK cell ELISA assay was performed in the A549 cell line. A549 cells were cultured in cell media composed of MEM-F12 (Minimum Essential Medium F12 Sigma #D6421), 10% (v/v) Foetal Calf Serum and 1% (v/v) 200 mM L-Glutamine. […] The following day the Greiner ELISA plates were washed 3× with PBS-T and blocked with 3% BSA/PBS for 2 h, before a further 3× wash with PBS-T.
The cell plates were then incubated for 1 h at 37° C. before receiving a radiation dose of 8 Gy (XRAD 320, table height 65). The cells were incubated for a further 1 h before removal of cell media. […] Cell lysates ([…]) were transferred to the DNAPK antibody-coated ELISA plates using a CyBio Felix liquid handling platform, and ELISA plates were incubated at 4° C. overnight.
The following day, ELISA plates were washed 3× with PBS-T and dispensed with in-house pS2056-DNAPK antibody (0.5 μg/mL in 3% BSA/PBS) at 20 ul/well.
The fluorescence intensity of individual wells was determined using a PerkinElmer EnVision plate reader.
Data was analysed and IC50 values were calculated using Genedata Screener® software (Genedata, Inc., Basel, Switzerland).

[2] = target: JAK1 (Homo sapiens (Human), UniProt P23458); assay: JAK1 enzyme assay (Z'-LYTE); type: biochemical; details: 75 μM ATP, arithmetic mean of two or more experiments; for IC50: read-out: JAK1 enz pIC50 (converted)
Method: (§1) The inhibitory activity of compounds against AURKA, AURKB, JAK1, JAK2 and JAK3 was determined in Z′-LYTE® assays run by ThermoFisher Scientific as part of their SelectScreen® Biochemical Kinase Profiling Service. The Z′-LYTE® biochemical assay format employs a fluorescence-based, coupled-enzyme format and is based on the differential sensitivity of phosphorylated and non-phosphorylated peptides to proteolytic cleavage. The peptide substrate is labeled with two fluorophores—one at each end—that make up a FRET pair. In the primary reaction, the kinase transfers the gamma-phosphate of ATP to a single tyrosine, serine or threonine residue in a synthetic FRET-peptide. In the secondary reaction, a site-specific protease recognises and cleaves non-phosphorylated FRET-peptides. Phosphorylation of FRET-peptides suppresses cleavage by the Development Reagent. Cleavage disrupts FRET between the donor (i.e., coumarin) and acceptor (i.e., fluorescein) fluorophores on the FRET-peptide, whereas uncleaved, phosphorylated FRET-peptides maintain FRET. A ratiometric method, which calculates the ratio (the Emission Ratio) of donor emission to acceptor emission after excitation of the donor fluorophore at 400 nm, is used to quantitate reaction progress. Both cleaved and uncleaved FRET-peptides contribute to the fluorescence signals and therefore to the Emission Ratio. The extent of phosphorylation of the FRET-peptide can be calculated from the Emission Ratio.
(§2) 10 point three-fold dilution compound concentration-response curves, with a top concentration of 10 μM were generated from 10 mM stocks of compound solubilised in DMSO. All assays were performed in black, non-binding, low volume Corning 384-well plates (cat. #4514, Corning), in a total reaction volume of 10 μL and 1% (v/v) final DMSO concentration. […] The kinase reaction was then quenched by the addition of 5 μL of Development Reagent (ThermoFisher Scientific proprietary). […] IC50 values were calculated using XLfit software (IDBS Ltd, Surrey, UK), with the curve fit to model number 205 (sigmoidal dose-response model).
JAK1: The 2×JAK/Tyr 06 (ThermoFisher Scientific proprietary) mixture was prepared in 50 mM HEPES pH 6.5, 0.01% BRIJ-35, 10 mM MgCl2, 1 mM EGTA, 0.02% NaN3. […] After the 1 hour Kinase Reaction incubation, 5 μL of a 1:128 dilution of Development Reagent was added.

[3] = target: JAK2 (Homo sapiens (Human), UniProt O60674); assay: JAK2 enzyme assay (Z'-LYTE); type: biochemical; details: 25 μM ATP, arithmetic mean of two or more experiments; for IC50: read-out: JAK2 enz pIC50 (converted)
Method: as §1, §2
JAK2: The 2×JAK2/Tyr 06 (ThermoFisher Scientific proprietary) mixture was prepared in 50 mM HEPES pH 7.5, 0.01% BRIJ-35, 10 mM MgCl2, 1 mM EGTA. […] After the 1 hour Kinase Reaction incubation, 5 μL of a 1:128 dilution of Development Reagent was added.

Sequence of JAK1 (P23458 whole entry): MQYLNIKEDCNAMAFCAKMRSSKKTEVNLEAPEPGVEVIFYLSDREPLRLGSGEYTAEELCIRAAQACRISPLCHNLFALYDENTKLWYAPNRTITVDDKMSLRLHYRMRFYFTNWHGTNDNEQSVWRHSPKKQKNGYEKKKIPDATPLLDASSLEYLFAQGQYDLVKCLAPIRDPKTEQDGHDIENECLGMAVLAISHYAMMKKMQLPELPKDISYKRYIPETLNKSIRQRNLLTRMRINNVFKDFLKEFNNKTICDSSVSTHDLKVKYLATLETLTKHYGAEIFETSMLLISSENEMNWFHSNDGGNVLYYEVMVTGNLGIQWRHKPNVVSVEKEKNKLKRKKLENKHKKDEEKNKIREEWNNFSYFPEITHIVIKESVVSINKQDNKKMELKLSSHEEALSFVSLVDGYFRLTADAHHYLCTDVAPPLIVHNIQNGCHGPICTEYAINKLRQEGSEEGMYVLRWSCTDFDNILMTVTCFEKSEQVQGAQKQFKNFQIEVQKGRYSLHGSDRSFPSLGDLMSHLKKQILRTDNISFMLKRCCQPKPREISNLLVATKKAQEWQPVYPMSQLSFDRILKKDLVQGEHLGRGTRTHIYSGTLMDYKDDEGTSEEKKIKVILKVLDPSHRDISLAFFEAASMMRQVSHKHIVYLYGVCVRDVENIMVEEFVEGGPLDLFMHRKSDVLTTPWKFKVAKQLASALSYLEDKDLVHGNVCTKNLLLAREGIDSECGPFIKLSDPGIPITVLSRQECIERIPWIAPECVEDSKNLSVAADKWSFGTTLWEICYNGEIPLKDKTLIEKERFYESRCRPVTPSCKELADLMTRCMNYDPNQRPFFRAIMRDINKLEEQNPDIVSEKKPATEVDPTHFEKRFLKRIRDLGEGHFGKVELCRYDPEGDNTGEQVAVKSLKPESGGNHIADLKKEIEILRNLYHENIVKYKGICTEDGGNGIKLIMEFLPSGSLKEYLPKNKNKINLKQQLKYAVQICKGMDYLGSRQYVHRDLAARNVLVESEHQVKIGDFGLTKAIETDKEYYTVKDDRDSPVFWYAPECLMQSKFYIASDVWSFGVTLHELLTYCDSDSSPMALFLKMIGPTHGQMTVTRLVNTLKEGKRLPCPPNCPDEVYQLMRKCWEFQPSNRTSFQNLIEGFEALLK
Sequence of JAK2 (O60674 whole entry): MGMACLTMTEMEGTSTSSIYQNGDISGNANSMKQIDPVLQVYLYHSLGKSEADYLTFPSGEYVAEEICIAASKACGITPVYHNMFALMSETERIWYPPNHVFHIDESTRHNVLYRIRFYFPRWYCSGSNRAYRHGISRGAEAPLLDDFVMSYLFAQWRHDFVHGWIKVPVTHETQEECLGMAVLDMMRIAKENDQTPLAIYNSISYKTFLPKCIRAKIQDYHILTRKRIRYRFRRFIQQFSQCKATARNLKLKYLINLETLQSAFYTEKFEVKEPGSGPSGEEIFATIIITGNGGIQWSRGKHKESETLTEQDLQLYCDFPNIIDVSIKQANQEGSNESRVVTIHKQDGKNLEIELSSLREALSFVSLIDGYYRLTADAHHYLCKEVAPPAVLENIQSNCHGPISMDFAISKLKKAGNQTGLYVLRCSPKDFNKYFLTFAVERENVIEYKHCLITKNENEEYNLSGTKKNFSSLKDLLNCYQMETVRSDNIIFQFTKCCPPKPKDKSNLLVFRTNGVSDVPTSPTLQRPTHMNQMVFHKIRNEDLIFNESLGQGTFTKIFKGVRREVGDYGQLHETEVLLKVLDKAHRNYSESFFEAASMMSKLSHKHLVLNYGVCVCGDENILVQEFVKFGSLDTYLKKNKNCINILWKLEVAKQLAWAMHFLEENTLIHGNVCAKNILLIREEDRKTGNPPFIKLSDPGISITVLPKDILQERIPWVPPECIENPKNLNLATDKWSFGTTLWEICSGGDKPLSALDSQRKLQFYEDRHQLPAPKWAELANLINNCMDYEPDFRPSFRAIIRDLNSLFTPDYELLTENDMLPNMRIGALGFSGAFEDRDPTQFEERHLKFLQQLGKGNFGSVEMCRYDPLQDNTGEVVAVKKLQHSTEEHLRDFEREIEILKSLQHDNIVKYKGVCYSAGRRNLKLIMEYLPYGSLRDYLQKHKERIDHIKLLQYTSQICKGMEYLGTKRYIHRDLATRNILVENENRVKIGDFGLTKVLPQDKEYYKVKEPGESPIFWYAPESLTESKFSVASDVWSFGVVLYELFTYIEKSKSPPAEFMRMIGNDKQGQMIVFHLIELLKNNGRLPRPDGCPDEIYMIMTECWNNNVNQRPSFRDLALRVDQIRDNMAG

SMILES	IC50 [1]	JAK1 enz pIC50 [2]	JAK2 enz pIC50 [3]	IC50 [2]	IC50 [3]
CC(=O)N1CCC(n2c(=O)n(C)c3cnc(Nc4cc5ccnnc5cc4C)nc32)CC1 [Example 1, 9-(1-acetylpiperidin-4-yl)-7-methyl-2-((7-methylcinnolin-6-yl)amino)-7,9-dihydro-8H-purin-8-one]	200 nM	<5	<5.2	–	–
CC(=O)N1CCC(n2c(=O)n(C)c3cnc(Nc4cc5nccnc5cc4C)nc32)CC1 [Example 2, 9-(1-acetylpiperidin-4-yl)-7-methyl-2-((7-methylquinoxalin-6-yl)amino)-7,9-dihydro-8H-purin-8-one]	50.1 nM	<5	<5	–	–
CC(=O)N1CCC(n2c(=O)n(C)c3cnc(Nc4cc5cncnc5cc4C)nc32)CC1 [Example 3, 9-(1-acetylpiperidin-4-yl)-7-methyl-2-((7-methylquinazolin-6-yl)amino)-7,9-dihydro-8H-purin-8-one]	63.1 nM	<5	<5	–	–
CC(=O)N1CCC(n2c(=O)n(C)c3cnc(Nc4cc5ncc(C)nc5cc4C)nc32)CC1 [Example 4, 9-(1-acetylpiperidin-4-yl)-2-((2,7-dimethylquinoxalin-6-yl)amino)-7-methyl-7,9-dihydro-8H-purin-8-one]	251 nM	<5	<5	–	–
CC(=O)N1CCC(n2c(=O)n(C)c3cnc(Nc4cc5nc(C)cnc5cc4C)nc32)CC1 [Example 5, 9-(1-acetylpiperidin-4-yl)-2-((3,7-dimethylquinoxalin-6-yl)amino)-7-methyl-7,9-dihydro-8H-purin-8-one]	100 nM	<5	<5	–	–
Cc1cc2ncccc2cc1Nc1ncc2c(n1)n([C@H]1CC[C@H](O)CC1)c(=O)n2C [Example 6, 9-((1r,4r)-4-hydroxycyclohexyl)-7-methyl-2-((7-methylquinolin-6-yl)amino)-7,9-dihydro-8H-purin-8-one]	5.01 nM	<5	<5	–	–
Cc1cc2nnccc2cc1Nc1ncc2c(n1)n([C@H]1CC[C@H](O)CC1)c(=O)n2C [Example 7, 9-((1r,4r)-4-hydroxycyclohexyl)-7-methyl-2-((7-methylcinnolin-6-yl)amino)-7,9-dihydro-8H-purin-8-one]	50.1 nM	<5	<5	–	–
Cc1cc2nccc(C)c2cc1Nc1ncc2c(n1)n([C@H]1CC[C@H](O)CC1)c(=O)n2C [Example 8, 2-((4,7-dimethylquinolin-6-yl)amino)-9-((1r,4r)-4-hydroxycyclohexyl)-7-methyl-7,9-dihydro-8H-purin-8-one]	10 nM	–	–	> 10000 nM	> 10000 nM
COc1ccnc2cc(C)c(Nc3ncc4c(n3)n([C@H]3CC[C@H](O)CC3)c(=O)n4C)cc12 [Example 9, 9-((1r,4r)-4-hydroxycyclohexyl)-2-((4-methoxy-7-methylquinolin-6-yl)amino)-7-methyl-7,9-dihydro-8H-purin-8-one]	7.94 nM	<5	<5	–	–
Cc1cc2nccnc2cc1Nc1ncc2c(n1)n([C@H]1CC[C@H](O)CC1)c(=O)n2C [Example 10, 9-((1r,4r)-4-hydroxycyclohexyl)-7-methyl-2-((7-methylquinoxalin-6-yl)amino)-7,9-dihydro-8H-purin-8-one]	10 nM	–	–	> 10000 nM	> 10000 nM
Cc1cc2ncccc2cc1Nc1ncc2c(n1)n([C@H]1CC[C@@H](O)CC1)c(=O)n2C [Example 11, 9-((1s,4s)-4-hydroxycyclohexyl)-7-methyl-2-((7-methylquinolin-6-yl)amino)-7,9-dihydro-8H-purin-8-one]	20 nM	–	–	> 10000 nM	> 10000 nM
Cc1cc2nnccc2cc1Nc1ncc2c(n1)n([C@H]1CC[C@@H](O)CC1)c(=O)n2C [Example 12, 9-((1s,4s)-4-hydroxycyclohexyl)-7-methyl-2-((7-methylcinnolin-6-yl)amino)-7,9-dihydro-8H-purin-8-one]	20 nM	<5	<5	–	–
Cc1cc2nccnc2cc1Nc1ncc2c(n1)n([C@H]1CC[C@@H](O)CC1)c(=O)n2C [Example 13, 9-((1s,4s)-4-hydroxycyclohexyl)-7-methyl-2-((7-methylquinoxalin-6-yl)amino)-7,9-dihydro-8H-purin-8-one]	15.8 nM	–	–	> 10000 nM	> 10000 nM
Cc1cc2nccnc2cc1Nc1ncc2c(n1)n([C@H]1CC[C@](C)(O)CC1)c(=O)n2C [Example 18, 9-((1r,4r)-4-hydroxy-4-methylcyclohexyl)-7-methyl-2-((7-methylquinoxalin-6-yl)amino)-7,9-dihydro-8H-purin-8-one]	50.1 nM	–	–	> 10000 nM	> 10000 nM
Cc1cc2nccnc2cc1Nc1ncc2c(n1)n([C@H]1CC[C@@](C)(O)CC1)c(=O)n2C [Example 19, 9-((1s,4s)-4-hydroxy-4-methylcyclohexyl)-7-methyl-2-((7-methylquinoxalin-6-yl)amino)-7,9-dihydro-8H-purin-8-one]	25.1 nM	–	–	> 10000 nM	> 10000 nM
Cc1cc2nccnc2cc1Nc1ncc2c(n1)n([C@]1(C)CC[C@H](O)CC1)c(=O)n2C [Example 20, 9-((1s,4s)-4-hydroxy-1-methylcyclohexyl)-7-methyl-2-((7-methylquinoxalin-6-yl)amino)-7,9-dihydro-8H-purin-8-one]	20 nM	<5	<5	–	–
Cc1cc2nnccc2cc1Nc1ncc2c(n1)n([C@H]1CCOC1)c(=O)n2C [Example 21, (S)-7-methyl-2-((7-methylcinnolin-6-yl)amino)-9-(tetrahydrofuran-3-yl)-7,9-dihydro-8H-purin-8-one]	15.8 nM	<5	<5	–	–
Cc1cc2nccnc2cc1Nc1ncc2c(n1)n([C@H]1CCOC1)c(=O)n2C [Example 22, (S)-7-methyl-2-((7-methylquinoxalin-6-yl)amino)-9-(tetrahydrofuran-3-yl)-7,9-dihydro-8H-purin-8-one]	25.1 nM	<5	<5	–	–
Cc1cc2nnccc2cc1Nc1ncc2c(n1)n([C@@H]1CCOC1)c(=O)n2C [Example 23, (R)-7-methyl-2-((7-methylcinnolin-6-yl)amino)-9-(tetrahydrofuran-3-yl)-7,9-dihydro-8H-purin-8-one]	63.1 nM	<5	<5	–	–
Cc1cc2nccnc2cc1Nc1ncc2c(n1)n([C@@H]1CCOC1)c(=O)n2C [Example 24, (R)-7-methyl-2-((7-methylquinoxalin-6-yl)amino)-9-(tetrahydrofuran-3-yl)-7,9-dihydro-8H-purin-8-one]	79.4 nM	<5	<5	–	–
Cc1cc2nnccc2cc1Nc1ncc2c(n1)n([C@@H]1CCCOC1)c(=O)n2C [Example 25, (R)-7-methyl-2-((7-methylcinnolin-6-yl)amino)-9-(tetrahydro-2H-pyran-3-yl)-7,9-dihydro-8H-purin-8-one]	39.8 nM	<5	<5	–	–

Source: patent publication US11884671B2, “Purinone compounds and their use in treating cancer” (ASTRAZENECA AB, priority 2018, dated 2024)
